Results published in patent publication US8202555B2, “Natural pharmaceutical preparations for increasing albumin” (priority 2009, dated 2012).

Key:
SIV = conditions: general statement, no own test; cited from earlier work
[1] = CCl4-induced liver injury (cirrhosis with ascites) in rats: serum proteins, ascites, fibrosis markers; type: in vivo, rat; conditions: 4 weeks
[2] = Tuberculous pleural effusions and serum albumin in BCG-sensitized guinea pigs; type: in vivo; conditions: 5 mg/kg, 7 days
Excerpt: After sensitizing with BCG for 42 days, guinea pig was administrated with preparations for 7 days, sensitized for 2 days continuously, then measured the level of Pleural Effusion, number of white blood cell and content of serum albumin

[3] = tested on: HRSE-resistant (Isoniazid, Rifampicin, Streptomycin, Ethambutol-resistant) tubercle bacillus; type: cell-based; conditions: serum of mice dosed 25 mg/kg, 10% serum
[4] = tested on: R-resistant (Rifampicin) tubercle bacillus; type: cell-based; conditions: serum of mice dosed 25 mg/kg, 10% serum
[5] = tested on: HR-resistant (Isoniazid and Rifampicin) tubercle bacillus; type: cell-based; conditions: serum of mice dosed 25 mg/kg, 10% serum
[6] = tested on: H-resistant (Isoniazid) tubercle bacillus; type: cell-based; conditions: serum of mice dosed 25 mg/kg, 10% serum
H37Rv Tubercle Bacillus = test: Anti-tubercle bacillus assay in vivo, total lung bacterial count; conditions: infected C57BL/6 mice, 25 mg/kg
Description: Anti-tubercle bacillus assay is tested in vivo. C57BL/6 mice infected with H37Rv Tubercle Bacillus are divided into 6 groups (n=15), one is normal control group, another is positive control group (INH: 25 mg/kg), in other groups, preparations was added into mice's feed, animals are administrated consecutive 16 weeks.
Experimental staff Killed 5 mice at the 2nd, 4th, 16th week, obtained lung and spleen, put them into 1 ml 7H9 media, grinded and converted them into 1.5 ml Ep tube, doublely diluted 10 times with 7H9 media, then Plated different dilutions onto 7H11 solid media plates for 4w at 37° C., counted tuberculosis colonys.
Calculation Formula: (initial number of clone×final broth volume×dilution factor 10^3×2×10)+(initial number of clone colony×final broth volume×dilution factor 10^4×2×10)+(initial number of clone colony×final broth volume×dilution factor 10^5×2×10)/3
Take tissue for pathological examination, weight lung, Calculation Formula: (initial number of clone×final broth volume×dilution factor 10^3×2×10)+(initial number of clone colony×final broth volume×dilution factor 10^4×2×10)+(initial number of clone colony×final broth volume×dilution factor 10^5×2×10)/3×initial organ weight/organ weight in treatment.
Count number of Lung bacterial or mouse spleen CFU of every mouse in each group, convert data in accordance with 1 g (CFU).

[7] = Serum albumin in rats with intra-abdominal infection; type: in vivo; conditions: 30 mg/kg
Excerpt: The mice are divided into 6 groups (n=10), i.e., Normal control group, Negative control group, Positive control group (Panaxoside), in the remaining 3 groups, rats were fed with preparation 1 through intragastric administration for 6 days. Under anesthesia by diethyl ether, abdominal cavity of mice were cut open, experimental staff stick a puncture on appendices with needle to cause it infected, then sew up abdominal wound. Continue administration after surgery, animals were executed for collecting their blood to measure serum albumin levels, results are listed in Table 7.

[8] = CCl4 rats with ascites, 0.23 mg/kg intragastrically

Cc1cn([C@H]2C[C@H](N=[N+]=[N-])[C@@H](CO)O2)c(=O)[nH]c1=O [AZT, Zidovudine]
inhibition of infection by SIV (SIV): could not inhibited infection

COc1cc2c(c(OC)c1OC)-c1ccc(OC)c(=O)cc1[C@@H](NC(C)=O)CC2 [Colchicine, colchicine]
ALB [1, 8]: 38.1 ± 5.6 g/L
ALB/GLB [1, 8]: 2.8 ± 1.6
GLB [1, 8]: 17.1 ± 7.7 g/L
Incidence (ascites) ([1]; CCl4 rats, 0.23 mg/kg): 50%
Animal with ascites n ([1]; CCl4 rats, 0.23 mg/kg, of 10 animals): 5
HPRO ([1]; CCl4 rats, liver, 0.23 mg/kg): 0.29 ± 0.08 mg/g (Liver Weight)

C[C@@H]1C[C@H]2[C@@H]3CCC4=CC(=O)C=C[C@]4(C)[C@@]3(F)[C@@H](O)C[C@]2(C)[C@@]1(O)C(=O)CO [Dexamethasone]
ALB [2]: 29.05 ± 3.49 g/L
Exudates volumes [2]: 1.2 ± 0.44 mL
WBC [2]: 19.1 ± 5.24 ×109

NNC(=O)c1ccncc1 [INH, Isoniazid]
Inhibition rate of serum, HRSE-resistance [3]: 21%
Inhibition rate of serum, R-resistance [4]: 72%
Inhibition rate of serum, HR-resistance [5]: 67%
Inhibition rate of serum, H-resistance [6]: 0%
Total Lung bacterical count, Mean lg (CFU ± SEM) (H37Rv Tubercle Bacillus; 2 w): 6.12 ± 0.22 lg (CFU)
Total Lung bacterical count, Mean lg (CFU ± SEM) (H37Rv Tubercle Bacillus; 4 w): 5.59 ± 0.20 lg (CFU)
Total Lung bacterical count, Mean lg (CFU ± SEM) (H37Rv Tubercle Bacillus; 16 w): 2.77 ± 0.16 lg (CFU)

Panaxoside
ALB [7]: 29.64 ± 2.29 g/L
